Results as given in PubChem BioAssay (NCI).
Where “and” joins values, the source holds several entries; their conditions need not be identical. Equal values may be shown once.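 Growth conditions: 96-well plates. Treatment: test compound, 48 hours, 5 concentrations. Analysis: linear interpolation between bracketing concentrations; unreached endpoints set to highest concentration. Abbreviation: GI50, concentration required for 50% inhibition of growth. TGI: concentration producing complete growth inhibition.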

Legend:
Assay in all cases: inhibition of tumour cell growth, NCI panel, 48 h
ACHN renal = system: ACHN renal
BT-549 breast = system: BT-549 breast
HCC-2998 colon = system: HCC-2998 colon
NCI-H23 lung = system: NCI-H23 lung
NCI-H522 lung = system: NCI-H522 lung
OVCAR-5 ovarian = system: OVCAR-5 ovarian
SF-539 CNS = system: SF-539 CNS
T-47D breast = system: T-47D breast
U251 CNS = system: U251 CNS
UO-31 renal = system: UO-31 renal

Structure (SMILES) | TGI (ACHN renal) [µM] | TGI (BT-549 breast) [µM] | TGI (HCC-2998 colon) | TGI (NCI-H23 lung) | TGI (NCI-H522 lung) | TGI (OVCAR-5 ovarian) | TGI (SF-539 CNS) | TGI (T-47D breast) [µM] | TGI (U251 CNS) | TGI (UO-31 renal) | GI50 (HCC-2998 colon) [µM] | GI50 (NCI-H23 lung) [µM] | GI50 (NCI-H522 lung) [µM] | GI50 (OVCAR-5 ovarian) [µM] | GI50 (SF-539 CNS) [µM] | GI50 (U251 CNS) [µM] | GI50 (UO-31 renal) | GI50 (ACHN renal) [µM] | GI50 (BT-549 breast) [µM] | GI50 (T-47D breast) [µM]
c1ccc(/C(=N\Nc2nc3ccccc3[nH]2)c2ccccn2)cc1 | 2 | 14.5 | 4.1 µM | 14.5 µM | 0.69 µM | 4.47 µM | 1.64 µM | 27 | > 28.5 µM | 6.73 µM | – | – | – | – | – | – | – | – | – | –
COC(=O)c1c(O)ccc2c1c1c(n2CCc2ccc(OC)c(OC)c2)C(=O)c2ccccc2C1=O | 35.9 | 27.8 | 15.7 µM | 31.5 µM | 14 µM | 34.1 µM | 28.1 µM | 31.9 | 43.2 µM | 34.6 µM | – | – | – | – | – | – | – | – | – | –
O=C1Nc2cccc(Cl)c2/C1=C\c1cccnc1 | > 100 | 24.4 | 7.86 µM | 15.8 µM | 21.6 µM | 16.1 µM | 39.7 µM | 16.6 | 35.2 µM | 18.5 µM | – | – | – | – | – | – | – | – | – | –
N#CC1(CCCI)CCCC1 | > 100 | – | > 100 µM | 24.7 µM | 28.7 µM | 51.6 µM | 45.1 µM | – | 26.3 µM | > 100 µM | – | – | – | – | – | – | – | – | – | –
N#Cc1c(-c2ccc([N+](=O)[O-])cc2)c2c([nH]c1=O)-c1ccccc1CCC2 | > 100 | 85.9 | 71.1 µM | > 100 µM | > 100 µM | > 100 µM | > 100 µM | 70.5 | > 100 µM | > 100 µM | – | – | – | – | – | – | – | – | – | –
CC[C@@]1(O)CC(OC2CC(N3CCOCC3)C(O)C(C)O2)c2c(O)c3c(c(O)c2[C@H]1O)C(=O)c1cccc(O)c1C3=O (stereo partly specified) | 0.0815 | 0.349 | 0.904 µM and 0.916 µM | 1.95 µM and 1.09 µM | 0.906 µM and 0.407 µM | 2.17 µM and 0.821 µM | 1.07 µM and 0.71 µM | 3.35 | 1.73 µM and 0.348 µM | 1.57 µM and 3.28 µM | 0.13 | 0.101 | 0.055 | 0.192 | 0.0233 | 0.0287 | 0.437 µM and 0.828 µM | – | – | –
CC(C)CCN(CCC(C)C)CC(=O)Nc1ccc(S(=O)(=O)c2ccc(NC(=O)CN(CCC(C)C)CCC(C)C)cc2)cc1 | 4.68 | 3.36 | 9.71 µM | 4.84 µM | 3.2 µM | 5.46 µM | 3.07 µM | 4.29 | – | 12.8 µM | 3.2 | 1.81 | 1.53 | 2.07 | 1.57 | – | 2.07 µM | 1.94 | 1.16 | 1.4
O=C1OC(c2ccc(O)cc2)(c2ccc(O)cc2)c2ccc(Cl)c3cccc1c23 (tested in a mixture with another compound) | 39.8 | 31.7 | – | 31 µM | – | 20.8 µM | 20.8 µM | – | 25.2 µM | > 75 µM | – | – | – | – | – | – | – | – | – | –
C[n+]1c2ccccc2c(N=[N+]=[N-])c2ccccc21 | > 10 | > 10 | > 10 µM | > 10 µM | > 10 µM | > 10 µM | > 10 µM | > 10 | > 10 µM | – | – | – | – | – | – | – | – | – | – | –
CC(=O)OC(C(=O)O)C(OC(C)=O)C(OC(C)=O)C(OC(C)=O)C(=O)O (stereo unspecified) | – | > 100 | – | > 100 µM | > 100 µM | > 100 µM | > 100 µM | – | > 100 µM | > 100 µM | – | – | – | – | – | – | – | – | – | –
C=C(CN(C)C)C(=O)c1ccccc1OC | 28.2 | 31.9 | 51.1 µM | 33.7 µM | 6.01 µM | 38.5 µM | 31.5 µM | 38.5 | 66.3 µM | 31.3 µM | – | – | – | – | – | – | – | – | – | –
Cc1ncc(C(=O)Nc2ccc(CN3CCN(C)CC3)c(C(F)(F)F)c2)cc1C#Cc1cnc(N)c2ccc(C#N)cc12 | – | > 100 | 24.7 µM | 3.28 µM | > 100 µM | – | 1.45 µM | > 100 | – | – | 2.29 | 0.0959 | 0.0788 | – | 0.0796 | – | – | – | 0.631 | 0.114
O=C(CSCC(=O)N/N=C\c1ccc(F)cc1F)N/N=C\c1ccc(F)cc1F | > 100 | – | > 100 µM | > 100 µM | > 100 µM | – | > 100 µM | > 100 | > 100 µM | > 100 µM | – | – | – | – | – | – | – | – | – | –
CCCCCCCCCCCCc1ccc(S(=O)(=O)O)cc1.[Cu+2] | > 100 | – | > 100 µM | > 100 µM | – | > 100 µM | > 100 µM | > 100 | > 100 µM | > 100 µM | – | – | – | – | – | – | – | – | – | –
Cc1csc2nc(-c3cccc([N+](=O)[O-])c3)c(/C=N/N=C(N)N)n12 | 3.63 | 2.49 | 0.861 µM | 3.49 µM | 3.26 µM | 2.98 µM | 4.71 µM | 8.06 | 3.4 µM | 2.68 µM | – | – | – | – | – | – | – | – | – | –
c1ccc(CSC(SCc2ccccc2)c2cccc3ccccc23)cc1 | > 10 | – | > 10 µM | > 10 µM | > 10 µM | > 10 µM | > 10 µM | > 10 | > 10 µM | > 10 µM | – | – | – | – | – | – | – | – | – | –
C[N+]1(C(CO)Cc2c[nH]c3ccccc23)Cc2ccccc2C1 (stereo unspecified) | > 100 | > 100 | > 100 µM | > 100 µM | > 100 µM | > 100 µM | – | > 100 | > 100 µM | > 100 µM | – | – | – | – | – | – | – | – | – | –
CC(C)CNC1=NCC(C)S1 (stereo unspecified) | > 100 | > 100 | > 100 µM | > 100 µM | > 100 µM | > 100 µM | > 100 µM | > 100 | > 100 µM | > 100 µM | – | – | – | – | – | – | – | – | – | –
O=C(O)c1cc2ccccc2c(N=Nc2ccc(S(=O)(=O)Nc3ccccn3)cc2)c1O | > 100 | > 100 | > 100 µM | – | > 100 µM | > 100 µM | > 100 µM | > 100 | > 100 µM | > 100 µM | – | – | – | – | – | – | – | – | – | –
